Laboratory results from patent publication EP4696689A1, “SALT FORM AND CRYSTAL FORM OF CHIRAL HETEROCYCLIC COMPOUND HAVING HEDGEHOG PATHWAY ANTAGONIST ACTIVITY” (Suzhou Kintor Pharmaceuticals, Inc., priority 2023, dated 2024).
Where two headings read alike, the source gives them in different places.

Legend:
Gli1 Gene = test: Gli1 mRNA expression in tumor tissues (RT-qPCR), Shh signaling pathway analysis; type: in vivo, CB-17/SCID mice; details: for mRNA Expression Level of Glil Gene: tumor tissue 2 hours after last administration, GAPDH internal reference
Description: Table 7-1 The Grouping and Drug Administration Plan
Primary tumor cells were extracted from Math1-Cre/Ptch1 ^C/C mice with spontaneous medulloblastoma and subcutaneously inoculated into CB-17/SCID mice to establish a xenograft model of medulloblastoma.
CB-17/SCID mice were subcutaneously injected with primary extracted medulloblastoma cells. After 3-4 weeks, a subset of mice developed tumors with volumes ranging from 150 to 300 mm^3.
From these mice, 25 tumor-bearing mice with uniform tumor sizes (with CV < 30%, CV = SD/Mean) were selected and randomly divided into 5 experimental groups (Vehicle, GDC-0449-10 mg/kg, Compound A-10 mg/kg, Compound A-3 mg/kg, Compound A-1 mg/kg) according to Table 2. Each group consisted of 5 mice per cage. Administration began on the day after grouping. The administration period was 3 days, with a frequency of BID. Tumor tissues were collected 2 hours after the last administration, and the mRNA expression level of the Glil gene in the tumor tissues was analyzed by RT-qPCR.
The tumor tissues were lysed by RNAiso Plius (TaKaRa, 108-95-2) to extractand RNA was then extracted using chloroform extraction and isopropanol precipitation methods. Subsequently, the mRNA level of the Glil gene was detected using a real-time fluorescence quantitative PCR instrument (ABI 7500), with GAPDH serving as the internal reference for quantitative analysis.
Experimental data in all tables are presented as "mean ± standard deviation" with error bars in figures representing standard error of the mean (SEM). Student's t-test was used to compare statistical differences in Glil gene mRNA expression levels in tumor tissues among treatment groups. All data were analyzed using GraphPad Prism 5.0. P-value <0.05 was considered statistically significant. ***, P<0.001; ##, P<0.01.
Glil is a target gene of the Hedgehog signaling pathway, and its mRNA expression level reflects the activation status of the hedgehog signaling pathway.

[1] = suspension competition experiment (thermodynamic stability of fumarate crystal forms); type: physicochemical; details: from room temperature to 50°C
Method: To study the thermodynamic stability relationship among the crystal forms of the fumarate salt, a suspension competition experiment at room temperature and 50°C is performed on the fumarate salt anhydrous crystal forms A, B, C and F. […] Table 3-1 Summary of Suspension Contention Tests

[2] = dynamic solubility in water and three biological solvents; type: physicochemical; details: 37°C, feed 5 mg/ml, read-out: S: solubility
Method: Finally, the volume is fixed with purified water.
(§1) 0.17 g of sodium dihydrogen phosphate (NaH2PO4, anhydrous), 0.021 g of sodium hydroxide and 0.31 g of sodium chloride were weighed into a 50 mL volumetric flask respectively, about 48 mL of purified water was added for dissolution, the pH was adjusted to exactly 6.5 with 1M hydrochloric acid or 1M sodium hydroxide, and the volume was fixed with purified water. 0.11 g of SIF powder was then added, stirred and sonicated to completely dissolve the powder. The solution can be used only after being placed at room temperature for two hours to reach equilibrium.
as §1, with “0.41 mL” for “0.17 g”, “glacial acetic acid, 0.20” for “sodium dihydrogen phosphate (NaH2PO4, anhydrous), 0.021”, “0.59” for “0.31”, “respectively, and” for “respectively,”, “5.0” for “6.5”, “0.56” for “0.11”
The solubility results of the two samples in SGF, FASSIT and FeSSIF are similar. […] Table 4-1 Summary of the dynamic solubility test results

[3] = SCID tumor-bearing mice, i.g. BID × 3 days
[4] = system: primary extracted medulloblastoma cells; test: antitumor efficacy against medulloblastoma, subcutaneous xenograft model; type: in vivo, CB-17/SCID mice; details: for Tumor Volume at Day 0 (mm^3): before treatment; for T/C (%) / Tumor Volume at Dosing Endpoint (mm^3) / TGI (%): 17 days; for Tumor Volume at Dosing Endpoint (mm^3): volume on Day 18; for Fold Change in Tumor Volume: Day 18 compared to Day 0; for anti-tumor efficacy compared to the high-dose GDC-0449 (10 mg/kg) group: after 17 days of treatment;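 as to all read-outs here: male CB-17/SCID mice bearing subcutaneous tumors, randomized at 150-300 mm^3, tumor volume from caliper diameters as 0.5 × longest × shortest squared, measured twice weekly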
Method: 60 male CB-17/SCID mice (aged 6-8 weeks) were purchased from Shanghai SLAC Laboratory Animal Co., Ltd. Animals were housed in individually ventilated cages (IVCs), with five mice per cage. Housing conditions were as follows: temperature was maintained at 20-26°C; humidity was 30-70%; 12 hours of light and 12 hours of darkness.
30 mice with uniform tumor sizes (Coefficient of Variation, CV < 30%, CV = Standard Deviation / Mean) were selected from this group. These mice were selected and randomly divided into five experimental groups according to Table 6-2, with six mice in each group and one group per cage. Drug administration began the day after grouping and lasted for 17 days with a frequency of twice daily (BID). The drug was discontinued after 17 days to observe tumor changes.
During routine examinations, animals were monitored for tumor growth, activity level, food intake, water consumption, weight gain or loss, eye, fur, and any other abnormal behaviors. Animal deaths and clinical abnormalities were recorded. Tumor volume (TV) was measured twice weekly using calipers and calculated using the formula: TV = 0.5a × b^2, wherein a is the longest diameter of the tumor and b is the shortest diameter. Body weight was recorded twice weekly, concurrently with tumor volume measurements.
If the animals' weight subsequently recovered to within a 10% loss compared to baseline, whether to continue the administration was based on the animals' condition. The in vivo experimental for an individual animal or the entire group would be terminated under the following conditions. The animals will be euthanized before death or coma. • ➢ If the animals' health condition deteriorated continuously, causing persistent suffering and is unable to eat or drink. • ➢ If the animal became emaciated, with a body weight loss exceeding 20% compared to the initial administration. • ➢ If the tumor volume of an individual mouse exceeded 3000 mm^3 or the mean tumor volume of the entire group exceeded 2000 mm^3.
All data were analyzed using GraphPad Prism 5.0. P value < 0.05 was considered statistically significant.

[5] = hygroscopicity evaluation by dynamic vapor sorption (DVS); type: physicochemical
Method: The DVS curves were collected on a DVS Intrinsic from SMS (Surface Measurement Systems).The relative humidity at 25°C was corrected with the deliquescence points of LiCl, Mg (NO3)2 and KCl.

[6] = pH 1.8, simulated gastric fluid, thermodynamic from solid, SGF
[7] = pH 5, thermodynamic from solid, FeSSIF
[8] = pH 6.5, thermodynamic from solid, FaSSIF
[9] = water, thermodynamic from solid, H2O

Structure (SMILES): Cc1cnc(-c2cc(N3CCc4nc(N5CCC(O)CC5)ncc4[C@H]3C)ncc2Cl)c(C)c1 [Fumarate crystal form F]
- mRNA Expression Level of Glil Gene (Gli1 Gene; 1 mg/kg i.g. BID × 3 days): 0.609 ± 0.140
- mRNA Expression Level of Glil Gene (Gli1 Gene; 3 mg/kg i.g. BID × 3 days): 0.359 ± 0.113
- mRNA Expression Level of Glil Gene (Gli1 Gene; 10 mg/kg i.g. BID × 3 days): 0.045 ± 0.035
- inhibition of Hedgehog signaling compared with the high-dose group of GDC-0449 (10 mg/kg) (Gli1 Gene; high-dose group (10 mg/kg)): significantly stronger inhibition
- thermodynamic stability among anhydrous crystal forms A, B, C and F [1]: most thermodynamically stable
- solubility at 1 h [2, 6]: 3600 µg/mL
- solubility at 2 h [2, 6]: 3500 µg/mL
- solubility at 4 h [2, 6]: 3600 µg/mL
- solubility at 24 h [2, 6]: 3500 µg/mL
- solubility at 1 h [2, 7]: 2500 µg/mL
- solubility at 2 h [2, 7]: 2800 µg/mL
- solubility at 4 h [2, 7]: 3100 µg/mL
- solubility at 24 h [2, 7]: 3100 µg/mL
- solubility at 1 h [2, 8]: 220 µg/mL
- solubility at 2 h [2, 8]: 210 µg/mL
- solubility at 4 h [2, 8]: 230 µg/mL
- solubility at 24 h [2, 8]: 210 µg/mL
- solubility at 1 h [2, 9]: 110 µg/mL
- solubility at 2 h [2, 9]: 130 µg/mL
- solubility at 4 h [2, 9]: 140 µg/mL
- solubility at 24 h [2, 9]: 150 µg/mL
- abnormal behaviors or animal deaths during the administration period [3]: no abnormal behaviors or animal deaths
- Tumor Volume at Day 0 (mm^3) ([4]; 1 mg/kg group): 220.5 ± 43.7 mm^3
- Tumor Volume ([4]; 1 mg/kg i.g. BID × 17 days, day 0 after grouping): 220.5 ± 43.7 mm3
- Tumor Volume ([4]; 1 mg/kg i.g. BID × 17 days, day 3): 244.9 ± 82.4 mm3
- Tumor Volume ([4]; 1 mg/kg i.g. BID × 17 days, day 6): 483.8 ± 252.8 mm3
- Tumor Volume ([4]; 1 mg/kg i.g. BID × 17 days, day 9): 759.7 ± 401.1 mm3
- Tumor Volume ([4]; 1 mg/kg i.g. BID × 17 days, day 12): 1234.4 ± 582.9 mm3
- Tumor Volume ([4]; 1 mg/kg i.g. BID × 17 days, day 15): 2056.6 ± 1094.9 mm3
- Tumor Volume ([4]; 1 mg/kg i.g. BID × 17 days, day 18): 2868.8 ± 1372.9 mm3
- Tumor Volume ([4]; 1 mg/kg i.g. BID × 17 days, day 21, drug withdrawal observation): 4176.0 ± 1871.1 mm3
- T/C (%) ([4]; 1 mg/kg i.g. BID): 124.5%
- Tumor Volume at Dosing Endpoint (mm^3) ([4]; 1 mg/kg i.g. BID): 2868.8 ± 1372.9 mm^3
- Fold Change in Tumor Volume ([4]; 1 mg/kg i.g. BID): 12.80 ± 4.95
- Tumor Volume at Day 0 (mm^3) ([4]; 3 mg/kg group): 244.1 ± 17.1 mm^3
- Tumor Volume ([4]; 3 mg/kg i.g. BID × 17 days, day 0 after grouping): 244.1 ± 17.1 mm3
- Tumor Volume ([4]; 3 mg/kg i.g. BID × 17 days, day 3): 205.3 ± 26.0 mm3
- Tumor Volume ([4]; 3 mg/kg i.g. BID × 17 days, day 6): 147.7 ± 56.5 mm3
- Tumor Volume ([4]; 3 mg/kg i.g. BID × 17 days, day 9): 140.1 ± 62.3 mm3
- Tumor Volume ([4]; 3 mg/kg i.g. BID × 17 days, day 12): 112.7 ± 46.9 mm3
- Tumor Volume ([4]; 3 mg/kg i.g. BID × 17 days, day 15): 125.4 ± 58.9 mm3
- Tumor Volume ([4]; 3 mg/kg i.g. BID × 17 days, day 18): 150.4 ± 77.2 mm3
- Tumor Volume ([4]; 3 mg/kg i.g. BID × 17 days, day 21, drug withdrawal observation): 199.3 ± 93.7 mm3
- Tumor Volume ([4]; 3 mg/kg i.g. BID × 17 days, day 23, drug withdrawal observation): 271.2 ± 131.7 mm3
- Tumor Volume ([4]; 3 mg/kg i.g. BID × 17 days, day 26, drug withdrawal observation): 604.1 ± 328.5 mm3
- Tumor Volume ([4]; 3 mg/kg i.g. BID × 17 days, day 29, drug withdrawal observation): 887.6 ± 407.9 mm3
- Tumor Volume ([4]; 3 mg/kg i.g. BID × 17 days, day 32, drug withdrawal observation): 1209.2 ± 513.6 mm3
- Tumor Volume ([4]; 3 mg/kg i.g. BID × 17 days, day 35, drug withdrawal observation): 1645.0 ±560.6 mm3
- Tumor Volume ([4]; 3 mg/kg i.g. BID × 17 days, day 38, drug withdrawal observation): 2352.0 ± 963.1 mm3
- T/C (%) ([4]; 3 mg/kg i.g. BID): 6.03%
- TGI (%) ([4]; 3 mg/kg i.g. BID): 93.97%
- Tumor Volume at Dosing Endpoint (mm^3) ([4]; 3 mg/kg i.g. BID): 150.4 ± 77.2 mm^3
- Fold Change in Tumor Volume ([4]; 3 mg/kg i.g. BID): 0.62 ± 0.33
- Tumor Volume at Day 0 (mm^3) ([4]; 10 mg/kg group): 234.5 ± 33.6 mm^3
- Tumor Volume ([4]; 10 mg/kg i.g. BID × 17 days, day 0 after grouping): 234.5 ± 33.6 mm3
- Tumor Volume ([4]; 10 mg/kg i.g. BID × 17 days, day 3): 187.9 ± 44.7 mm3
- Tumor Volume ([4]; 10 mg/kg i.g. BID × 17 days, day 6): 98.7 ± 28.9 mm3
- Tumor Volume ([4]; 10 mg/kg i.g. BID × 17 days, day 9): 47.9 ± 29.8 mm3
- Tumor Volume ([4]; 10 mg/kg i.g. BID × 17 days, day 12): 24.5 ± 14.9 mm3
- Tumor Volume ([4]; 10 mg/kg i.g. BID × 17 days, day 15): 10.9 ± 5.1 mm3
- Tumor Volume ([4]; 10 mg/kg i.g. BID × 17 days, day 18): 8.8 ± 6.1 mm3
- Tumor Volume ([4]; 10 mg/kg i.g. BID × 17 days, day 21, drug withdrawal observation): 14.7 ± 10.1 mm3
- Tumor Volume ([4]; 10 mg/kg i.g. BID × 17 days, day 23, drug withdrawal observation): 16.6 ± 9.7 mm3
- Tumor Volume ([4]; 10 mg/kg i.g. BID × 17 days, day 26, drug withdrawal observation): 18.1 ± 11.5 mm3
- Tumor Volume ([4]; 10 mg/kg i.g. BID × 17 days, day 29, drug withdrawal observation): 43.9 ± 37.3 mm3
- Tumor Volume ([4]; 10 mg/kg i.g. BID × 17 days, day 32, drug withdrawal observation): 92.2 + 101.2 mm3
- Tumor Volume ([4]; 10 mg/kg i.g. BID × 17 days, day 35, drug withdrawal observation): 214.8 + 254.9 mm3
- Tumor Volume ([4]; 10 mg/kg i.g. BID × 17 days, day 38, drug withdrawal observation): 347.4 + 445.9 mm3
- T/C (%) ([4]; 10 mg/kg i.g. BID): 0.39%
- TGI (%) ([4]; 10 mg/kg i.g. BID, TGI = [1 - RTV(treatment group) / RTV(control group)] × 100%): 99.61%
- Tumor Volume at Dosing Endpoint (mm^3) ([4]; 10 mg/kg i.g. BID): 8.8 ± 6.1 mm^3
- Fold Change in Tumor Volume ([4]; 10 mg/kg i.g. BID): 0.04 ± 0.03
- anti-tumor efficacy compared to the high-dose GDC-0449 (10 mg/kg) group ([4]; high-dose (10 mg/kg)): significantly superior
- inhibitory effect on tumor growth versus vehicle control group ([4]; low dose (1 mg/kg)): did not show a significant inhibitory effect
- recurrent tumor volume compared with the GDC-0449 group at the same time ([4]; medium and high-dose group, post-treatment observation period): significantly lower
- anti-tumor efficacy compared to the high-dose GDC-0449 (10 mg/kg) group ([4]; medium-dose (3 mg/kg)): significantly superior
- moisture adsorption ([5]; 25°C/80% RH, listed as fumarate crystal form F of the compound of formula (I)): 0.3%
- Water adsorption (25°C/80%RH) ([5]; 25°C/80%RH): 0.3
